Measurements from ChEMBL document CHEMBL2321764, “Synthesis and antibacterial activities of new piperidine substituted (5R)-[1,2,3]triazolylmethyl and (5R)-[(4-F-[1,2,3]triazolyl)methyl] oxazolidinones” (Bioorg Med Chem Lett, 2013).
In brackets after ≈: the same amount, converted by molar mass.

Tests used:
Enterococcus faecalis = test: Antibacterial activity against vancomycin-resistant Enterococcus faecalis C474 by agar dilution method; format: functional
Streptococcus pyogenes = test: Antibacterial activity against Streptococcus pyogenes 308A by agar dilution method; format: functional
Haemophilus influenzae = test: Antibacterial activity against betalactamase positive Haemophilus influenzae by agar dilution method; format: functional
Streptococcus agalactiae = test: Antibacterial activity against Streptococcus agalactiae ATCC 2901 by agar dilution method; format: functional
Staphylococcus = test: Antibacterial activity against methicillin-resistant coagulase negative Staphylococcus by agar dilution method; format: functional
Staphylococcus aureus = test: Antibacterial activity against methicillin-resistant Staphylococcus aureus C463 by agar dilution method; format: functional
Streptococcus pneumoniae = test: Antibacterial activity against penicillin-resistant Streptococcus pneumoniae C402 by agar dilution method; format: functional
Enterococcus faecium = test: Antibacterial activity against vancomycin-resistant Enterococcus faecium C803 by agar dilution method; format: functional
MAO-A = molecular target: T1, MAO-A (Homo sapiens, UniProt P21397); test: Inhibition of human MAO-A assessed as residual activity at 10 uM; conditions: read-out: INH
T1 sequence (P21397 whole entry): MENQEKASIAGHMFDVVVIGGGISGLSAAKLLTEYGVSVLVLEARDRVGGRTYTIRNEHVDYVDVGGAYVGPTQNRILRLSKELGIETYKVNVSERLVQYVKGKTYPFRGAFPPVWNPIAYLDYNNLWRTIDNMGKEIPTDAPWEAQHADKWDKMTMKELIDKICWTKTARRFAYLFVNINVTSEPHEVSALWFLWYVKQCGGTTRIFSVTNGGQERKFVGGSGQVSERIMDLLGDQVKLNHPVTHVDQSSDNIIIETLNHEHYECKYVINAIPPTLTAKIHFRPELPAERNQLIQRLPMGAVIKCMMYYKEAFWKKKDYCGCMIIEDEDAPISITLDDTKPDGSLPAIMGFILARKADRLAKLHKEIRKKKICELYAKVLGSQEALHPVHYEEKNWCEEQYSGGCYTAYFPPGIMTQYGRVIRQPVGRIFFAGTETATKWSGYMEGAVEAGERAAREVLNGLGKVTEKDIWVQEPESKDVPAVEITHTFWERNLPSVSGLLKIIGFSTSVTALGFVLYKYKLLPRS

CYP2C9 = CYP2C9 (Homo sapiens, UniProt P11712); test: Inhibition of CYP2C9 (unknown origin) assessed as residual activity at 10 uM; format: ADME; conditions: read-out: INH
CYP1A2 = molecular target: T2, CYP1A2 (Homo sapiens, UniProt P05177); test: Inhibition of CYP1A2 (unknown origin) assessed as residual activity at 10 uM; format: ADME; conditions: read-out: INH
T2 sequence (P05177 whole entry): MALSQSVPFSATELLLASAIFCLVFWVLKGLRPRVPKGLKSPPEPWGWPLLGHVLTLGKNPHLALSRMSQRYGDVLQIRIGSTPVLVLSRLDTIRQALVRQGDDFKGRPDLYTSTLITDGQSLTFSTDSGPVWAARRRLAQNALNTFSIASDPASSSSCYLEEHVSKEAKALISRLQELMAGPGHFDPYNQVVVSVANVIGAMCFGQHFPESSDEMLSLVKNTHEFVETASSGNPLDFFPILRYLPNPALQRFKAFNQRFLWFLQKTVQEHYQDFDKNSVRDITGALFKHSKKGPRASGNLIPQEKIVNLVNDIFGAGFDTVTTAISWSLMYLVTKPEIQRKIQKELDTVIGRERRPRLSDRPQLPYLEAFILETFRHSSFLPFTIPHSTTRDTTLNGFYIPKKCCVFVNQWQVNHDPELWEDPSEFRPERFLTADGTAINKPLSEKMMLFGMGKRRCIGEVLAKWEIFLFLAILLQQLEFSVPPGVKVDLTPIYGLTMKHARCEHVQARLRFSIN

MAO-B = molecular target: T3, MAO-B (Homo sapiens, UniProt P27338); test: Inhibition of human MAO-B assessed as residual activity at 10 uM; conditions: read-out: INH
T3 sequence (P27338 whole entry): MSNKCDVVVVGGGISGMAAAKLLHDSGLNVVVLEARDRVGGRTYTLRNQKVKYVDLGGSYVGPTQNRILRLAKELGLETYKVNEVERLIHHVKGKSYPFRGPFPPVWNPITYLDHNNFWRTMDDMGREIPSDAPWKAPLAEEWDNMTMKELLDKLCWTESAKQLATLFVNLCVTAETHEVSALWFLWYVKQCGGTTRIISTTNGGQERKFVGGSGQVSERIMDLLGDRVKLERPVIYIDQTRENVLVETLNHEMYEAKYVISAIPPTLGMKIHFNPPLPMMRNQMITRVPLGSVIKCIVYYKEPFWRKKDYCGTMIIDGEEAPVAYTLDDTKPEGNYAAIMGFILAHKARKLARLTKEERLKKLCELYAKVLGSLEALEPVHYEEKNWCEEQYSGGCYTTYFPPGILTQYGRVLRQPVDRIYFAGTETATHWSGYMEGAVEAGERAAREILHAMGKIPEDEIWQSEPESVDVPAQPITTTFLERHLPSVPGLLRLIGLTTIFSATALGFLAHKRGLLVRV

CYP2D6 = CYP2D6 (Homo sapiens, UniProt P10635); test: Inhibition of CYP2D6 (unknown origin) assessed as residual activity at 10 uM; format: ADME; conditions: read-out: INH
[1] = molecular target: Voltage-gated inwardly rectifying potassium channel KCNH2 (Homo sapiens, UniProt Q12809); test: Inhibition of human hERG by automated patch clamp assay
CYP3A4 = CYP3A4 (Homo sapiens, UniProt P08684); test: Inhibition of CYP3A4 (unknown origin) assessed as residual activity at 10 uM; format: ADME; conditions: read-out: INH
CYP3A4, sequence (P08684 whole entry): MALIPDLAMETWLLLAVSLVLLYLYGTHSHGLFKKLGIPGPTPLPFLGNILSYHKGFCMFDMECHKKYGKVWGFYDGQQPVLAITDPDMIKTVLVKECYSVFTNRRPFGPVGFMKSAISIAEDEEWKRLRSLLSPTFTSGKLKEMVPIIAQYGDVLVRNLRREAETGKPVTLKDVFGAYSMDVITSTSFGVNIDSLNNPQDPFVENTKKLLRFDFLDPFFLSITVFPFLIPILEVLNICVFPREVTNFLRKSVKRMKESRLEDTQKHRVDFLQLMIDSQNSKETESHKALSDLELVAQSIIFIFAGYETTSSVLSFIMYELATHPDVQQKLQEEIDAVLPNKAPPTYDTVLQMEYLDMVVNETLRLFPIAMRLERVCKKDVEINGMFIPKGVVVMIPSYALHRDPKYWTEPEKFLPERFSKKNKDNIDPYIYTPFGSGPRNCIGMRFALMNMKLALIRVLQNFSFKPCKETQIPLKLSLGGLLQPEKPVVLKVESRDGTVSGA

CYP2C9, sequence (P11712 whole entry): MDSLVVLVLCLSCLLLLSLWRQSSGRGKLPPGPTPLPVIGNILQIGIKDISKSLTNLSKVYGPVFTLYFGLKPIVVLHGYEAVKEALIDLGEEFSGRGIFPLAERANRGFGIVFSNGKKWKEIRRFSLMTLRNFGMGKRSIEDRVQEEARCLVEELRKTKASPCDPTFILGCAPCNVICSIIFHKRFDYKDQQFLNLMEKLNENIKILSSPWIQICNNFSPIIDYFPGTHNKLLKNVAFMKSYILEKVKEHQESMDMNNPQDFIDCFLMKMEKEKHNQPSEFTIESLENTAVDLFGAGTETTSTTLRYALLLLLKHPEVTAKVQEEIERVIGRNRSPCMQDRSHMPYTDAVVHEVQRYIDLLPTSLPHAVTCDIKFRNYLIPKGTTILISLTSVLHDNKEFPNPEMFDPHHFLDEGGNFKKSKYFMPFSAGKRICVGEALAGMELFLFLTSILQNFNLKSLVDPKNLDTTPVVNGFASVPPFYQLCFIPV
CYP2D6, sequence (P10635 whole entry): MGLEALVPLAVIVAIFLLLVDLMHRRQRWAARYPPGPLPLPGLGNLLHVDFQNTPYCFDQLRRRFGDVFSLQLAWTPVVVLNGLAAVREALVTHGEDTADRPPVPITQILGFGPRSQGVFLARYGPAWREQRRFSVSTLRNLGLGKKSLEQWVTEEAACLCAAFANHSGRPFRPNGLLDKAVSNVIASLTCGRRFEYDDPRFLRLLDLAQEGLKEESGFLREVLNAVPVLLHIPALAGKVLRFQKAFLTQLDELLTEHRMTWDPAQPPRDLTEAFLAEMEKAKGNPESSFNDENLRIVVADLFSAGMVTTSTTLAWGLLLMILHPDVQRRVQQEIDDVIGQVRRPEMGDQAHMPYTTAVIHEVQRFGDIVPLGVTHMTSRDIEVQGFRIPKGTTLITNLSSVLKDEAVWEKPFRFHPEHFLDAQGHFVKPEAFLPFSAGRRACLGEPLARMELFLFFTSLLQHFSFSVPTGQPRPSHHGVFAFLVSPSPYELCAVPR
Voltage-gated inwardly rectifying potassium channel KCNH2, sequence (Q12809 whole entry): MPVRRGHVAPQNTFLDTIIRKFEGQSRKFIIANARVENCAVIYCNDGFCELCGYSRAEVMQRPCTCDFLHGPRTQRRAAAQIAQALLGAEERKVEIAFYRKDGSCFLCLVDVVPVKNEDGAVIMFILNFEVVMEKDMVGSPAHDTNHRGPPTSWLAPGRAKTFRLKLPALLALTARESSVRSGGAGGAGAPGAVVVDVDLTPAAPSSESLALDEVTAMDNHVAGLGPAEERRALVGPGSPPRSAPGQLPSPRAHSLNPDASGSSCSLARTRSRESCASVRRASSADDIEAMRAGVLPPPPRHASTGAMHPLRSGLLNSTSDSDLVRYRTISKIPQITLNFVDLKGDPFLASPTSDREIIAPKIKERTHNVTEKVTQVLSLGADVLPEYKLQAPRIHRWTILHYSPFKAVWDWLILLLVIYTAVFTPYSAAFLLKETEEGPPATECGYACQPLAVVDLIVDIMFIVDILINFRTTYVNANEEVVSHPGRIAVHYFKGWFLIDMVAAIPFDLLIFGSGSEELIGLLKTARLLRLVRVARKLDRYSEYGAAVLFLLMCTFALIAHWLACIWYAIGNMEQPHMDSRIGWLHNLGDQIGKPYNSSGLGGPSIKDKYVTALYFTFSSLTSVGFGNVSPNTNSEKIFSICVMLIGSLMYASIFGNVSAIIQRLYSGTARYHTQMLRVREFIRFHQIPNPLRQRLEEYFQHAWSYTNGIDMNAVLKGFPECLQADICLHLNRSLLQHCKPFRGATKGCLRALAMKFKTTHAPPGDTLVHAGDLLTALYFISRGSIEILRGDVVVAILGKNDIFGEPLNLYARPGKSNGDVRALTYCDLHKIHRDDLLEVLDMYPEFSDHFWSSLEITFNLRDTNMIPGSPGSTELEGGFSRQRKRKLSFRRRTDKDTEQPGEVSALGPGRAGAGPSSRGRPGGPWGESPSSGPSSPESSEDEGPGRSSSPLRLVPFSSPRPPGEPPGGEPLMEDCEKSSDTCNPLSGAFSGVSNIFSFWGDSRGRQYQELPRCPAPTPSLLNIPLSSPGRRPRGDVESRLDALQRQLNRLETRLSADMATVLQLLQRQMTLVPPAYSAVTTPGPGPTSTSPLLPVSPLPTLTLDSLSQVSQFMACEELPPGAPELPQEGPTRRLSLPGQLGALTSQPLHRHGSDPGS

With `CCOC(=O)C(Cl)=C1CCN(c2ccc(N3C[C@H](Cn4ccnn4)OC3=O)cc2F)CC1` the MIC (Enterococcus faecalis) was 12.5 µg/mL (≈ 26.9 µM), the MIC (Streptococcus pyogenes) was 6.25 µg/mL (≈ 13.5 µM) and the MIC (Haemophilus influenzae) was 6.25 µg/mL (≈ 13.5 µM). For the same molecule, the MIC (Streptococcus agalactiae) was 6.25 µg/mL (≈ 13.5 µM), the MIC (Staphylococcus) was 25 µg/mL (≈ 53.9 µM) and the MIC (Staphylococcus aureus) was 25 µg/mL (≈ 53.9 µM). It also gave an MIC (Streptococcus pneumoniae) of 12.5 µg/mL (≈ 26.9 µM) and an MIC (Enterococcus faecium) of 25 µg/mL (≈ 53.9 µM).
`CCOC(=O)C(Cl)=C1CCN(c2ccc(N3C[C@H](Cn4cc(F)nn4)OC3=O)cc2F)CC1` gave an MIC (Enterococcus faecalis) of 100 µg/mL (≈ 208 µM), an MIC (Streptococcus pyogenes) of 50 µg/mL (≈ 104 µM) and an MIC (Haemophilus influenzae) of 50 µg/mL (≈ 104 µM). For the same molecule, the MIC (Streptococcus agalactiae) was 25 µg/mL (≈ 51.9 µM), the MIC (Staphylococcus) was 100 µg/mL (≈ 208 µM) and the MIC (Staphylococcus aureus) was 100 µg/mL (≈ 208 µM). The MIC (Streptococcus pneumoniae) was 100 µg/mL (≈ 208 µM) and the MIC (Enterococcus faecium) was 100 µg/mL (≈ 208 µM).
Molecule `CC(C#N)=C1CCN(c2ccc(N3C[C@H](Cn4ccnn4)OC3=O)cc2F)CC1` has an activity at 10 µM (MAO-A) of 34.8%, an MIC (Enterococcus faecalis) of 1.56 µg/mL (≈ 3.94 µM) and an MIC (Streptococcus pyogenes) of 0.39 µg/mL (≈ 0.984 µM). For the same molecule, the MIC (Haemophilus influenzae) was 0.39 µg/mL (≈ 0.984 µM), the activity at 10 µM (CYP2C9) was 61.5% and the MIC (Streptococcus agalactiae) was 0.19 µg/mL (≈ 0.479 µM). The activity at 10 µM (CYP1A2) was 45.7%, the MIC (Staphylococcus) was 1.56 µg/mL (≈ 3.94 µM) and the activity at 10 µM (MAO-B) was 74.8%. The activity at 10 µM (CYP2D6) was 65.1%, the MIC (Staphylococcus aureus) was 1.56 µg/mL (≈ 3.94 µM) and the IC50 [1] was 213 µM. For the same molecule, the MIC (Streptococcus pneumoniae) was 0.19 µg/mL (≈ 0.479 µM), the activity at 10 µM (CYP3A4) was 7.45% and the MIC (Enterococcus faecium) was 1.56 µg/mL (≈ 3.94 µM).
`CC(C#N)=C1CCN(c2ccc(N3C[C@H](Cn4cc(F)nn4)OC3=O)cc2F)CC1` showed an activity at 10 µM (MAO-A) of 10.2%, an MIC (Enterococcus faecalis) of 100 µg/mL (≈ 241 µM) and an MIC (Streptococcus pyogenes) of 6.25 µg/mL (≈ 15.1 µM). The MIC (Haemophilus influenzae) was 6.25 µg/mL (≈ 15.1 µM), the activity at 10 µM (CYP2C9) was 64.8% and the MIC (Streptococcus agalactiae) was 12.5 µg/mL (≈ 30.2 µM). The activity at 10 µM (CYP1A2) was 92.8%, the MIC (Staphylococcus) was 100 µg/mL (≈ 241 µM) and the activity at 10 µM (MAO-B) was 34.8%. For the same molecule, the activity at 10 µM (CYP2D6) was 106%, the MIC (Staphylococcus aureus) was 100 µg/mL (≈ 241 µM) and the IC50 [1] was 21 µM. It also gave an MIC (Streptococcus pneumoniae) of 6.25 µg/mL (≈ 15.1 µM), an activity at 10 µM (CYP3A4) of 21.4% and an MIC (Enterococcus faecium) of 100 µg/mL (≈ 241 µM).
`N#CC1(O)CCN(c2ccc(N3C[C@H](Cn4ccnn4)OC3=O)cc2F)CC1` showed an MIC (Enterococcus faecalis) of 3.12 µg/mL (≈ 8.07 µM), an MIC (Streptococcus pyogenes) of 0.78 µg/mL (≈ 2.02 µM) and an MIC (Haemophilus influenzae) of 1.56 µg/mL (≈ 4.04 µM). The MIC (Streptococcus agalactiae) was 1.56 µg/mL (≈ 4.04 µM), the MIC (Staphylococcus) was 3.12 µg/mL (≈ 8.07 µM) and the MIC (Staphylococcus aureus) was 3.12 µg/mL (≈ 8.07 µM). For the same molecule, the MIC (Streptococcus pneumoniae) was 0.78 µg/mL (≈ 2.02 µM) and the MIC (Enterococcus faecium) was 3.12 µg/mL (≈ 8.07 µM).
`N#CC1(O)CCN(c2ccc(N3C[C@H](Cn4cc(F)nn4)OC3=O)cc2F)CC1` gave an MIC (Enterococcus faecalis) of 100 µg/mL (≈ 247 µM), an MIC (Streptococcus pyogenes) of 6.25 µg/mL (≈ 15.5 µM) and an MIC (Haemophilus influenzae) of 6.25 µg/mL (≈ 15.5 µM). The MIC (Streptococcus agalactiae) was 12.5 µg/mL (≈ 30.9 µM), the MIC (Staphylococcus) was 100 µg/mL (≈ 247 µM) and the MIC (Staphylococcus aureus) was 100 µg/mL (≈ 247 µM). The MIC (Streptococcus pneumoniae) was 6.25 µg/mL (≈ 15.5 µM) and the MIC (Enterococcus faecium) was 100 µg/mL (≈ 247 µM).
For `N#CC1=CCN(c2ccc(N3C[C@H](Cn4ccnn4)OC3=O)cc2F)CC1`, the MIC (Enterococcus faecalis) was 3.12 µg/mL (≈ 8.47 µM), the MIC (Streptococcus pyogenes) was 1.56 µg/mL (≈ 4.23 µM) and the MIC (Haemophilus influenzae) was 1.56 µg/mL (≈ 4.23 µM). For the same molecule, the MIC (Streptococcus agalactiae) was 1.56 µg/mL (≈ 4.23 µM), the MIC (Staphylococcus) was 3.12 µg/mL (≈ 8.47 µM) and the MIC (Staphylococcus aureus) was 3.12 µg/mL (≈ 8.47 µM). It also gave an MIC (Streptococcus pneumoniae) of 1.56 µg/mL (≈ 4.23 µM) and an MIC (Enterococcus faecium) of 3.12 µg/mL (≈ 8.47 µM).
`N#CC1=CCN(c2ccc(N3C[C@H](Cn4cc(F)nn4)OC3=O)cc2F)CC1` was tested, and the MIC (Enterococcus faecalis) was 50 µg/mL (≈ 129 µM), the MIC (Streptococcus pyogenes) was 50 µg/mL (≈ 129 µM) and the MIC (Haemophilus influenzae) was 6.26 µg/mL (≈ 16.2 µM). It also gave an MIC (Streptococcus agalactiae) of 100 µg/mL (≈ 259 µM), an MIC (Staphylococcus) of 100 µg/mL (≈ 259 µM) and an MIC (Staphylococcus aureus) of 100 µg/mL (≈ 259 µM). For the same molecule, the MIC (Streptococcus pneumoniae) was 6.25 µg/mL (≈ 16.2 µM) and the MIC (Enterococcus faecium) was 50 µg/mL (≈ 129 µM).
`CC(=O)NC[C@H]1CN(c2ccc(N3CCC(=CC#N)CC3)c(F)c2)C(=O)O1` gave an MIC (Enterococcus faecalis) of 3.12 µg/mL (≈ 8.38 µM), an MIC (Streptococcus pyogenes) of 0.78 µg/mL (≈ 2.09 µM) and an MIC (Haemophilus influenzae) of 0.78 µg/mL (≈ 2.09 µM). The MIC (Streptococcus agalactiae) was 0.78 µg/mL (≈ 2.09 µM), the MIC (Staphylococcus) was 3.12 µg/mL (≈ 8.38 µM) and the MIC (Staphylococcus aureus) was 3.12 µg/mL (≈ 8.38 µM). For the same molecule, the MIC (Streptococcus pneumoniae) was 0.39 µg/mL (≈ 1.05 µM) and the MIC (Enterococcus faecium) was 3.12 µg/mL (≈ 8.38 µM).
In the case of `CC(=O)NC[C@H]1CN(c2ccc(N3CCOCC3)c(F)c2)C(=O)O1` [LINEZOLID], the activity at 10 µM (MAO-A) is reported as 6.79%, the MIC (Enterococcus faecalis) is reported as 3.12 µg/mL (≈ 9.25 µM) and the MIC (Streptococcus pyogenes) is reported as 0.78 µg/mL (≈ 2.31 µM). It also gave an MIC (Haemophilus influenzae) of 0.78 µg/mL (≈ 2.31 µM), an MIC (Streptococcus agalactiae) of 1.56 µg/mL (≈ 4.62 µM) and an MIC (Staphylococcus) of 3.12 µg/mL (≈ 9.25 µM). The activity at 10 µM (MAO-B) was 31.4%, the MIC (Staphylococcus aureus) was 3.12 µg/mL (≈ 9.25 µM) and the MIC (Streptococcus pneumoniae) was 0.78 µg/mL (≈ 2.31 µM). The MIC (Enterococcus faecium) was 1.56 µg/mL (≈ 4.62 µM).
